Biological target: T1, ERRα (Homo sapiens, UniProt P11474)
T1 construct: expressed in transfected cells; host or cells: CV-1 (African green monkey kidney) cells, transient transfection with CMX-GAL4-ERRα
T1 sequence (P11474 174-423): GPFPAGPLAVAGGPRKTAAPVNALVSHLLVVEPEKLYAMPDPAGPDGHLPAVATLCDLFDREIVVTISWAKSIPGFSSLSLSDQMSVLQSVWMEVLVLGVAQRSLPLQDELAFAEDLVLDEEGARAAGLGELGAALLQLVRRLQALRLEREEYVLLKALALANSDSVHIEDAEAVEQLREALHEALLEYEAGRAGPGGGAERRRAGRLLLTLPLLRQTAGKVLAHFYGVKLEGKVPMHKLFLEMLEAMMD
Experiment: GAL4-ERRα co-transfection assay (luciferase reporter, CV-1 cells)
Format: cell-based
Conditions: for Emax: CV-1, average percent inhibition of ERRα activity relative to control 3-[4-(2,4-Bis-trifluoromethyl-benzyloxy)-3-methoxy-phenyl]-2-cyano-N-(5-trifluoromethyl-[1,3,4]thiadiazol-2-yl)-acrylamide; for IC50: average IC50 for inverse agonist activity in the GAL4-ERRα assay, CV-1 cells
Experimental: Compound activity was also determined in a cell based assay using a GAL4-ERRα chimera to identify active compounds.
CMX-GAL4-ERRα was constructed by cloning nucleotides encoding amino acids 174-423 of ERRα (see GenBank sequence XM048286) into the vector pCMX-GAL4 (Perlmann et al., 1993, Genes & Development 7:1411-1422) comprising nucleotides encoding for amino acids 1-147 of the GAL4 DNA binding domain.
The TK-MH100×4-Luc (GAL4UAS-TK-Luciferase) reporter constructs were constructed by insertion of four copies of the Gal4 UAS (Kang et al. 1993, J. Biol. Chem. 268:9629-9635) into the Hind III site of TK-Luc. The parental plasmid TK-Luc was prepared by insertion of the Herpes simplex virus thymidine kinase gene promoter (−105 to +51) obtained from the plasmid pBLCAT2 by digestion with HindIII and XhoI (described in Luckow et al., 1987, Nuc. Acid. Res. 15:5490) into the plasmid MTV-LUC described by Hollenberg and Evans, 1988, Cell 55:899-906) after removal of MTV-LTR promoter sequence from MTV-LUC via digestion with HindIII and XhoI. Correct cloning was confirmed by restriction digestion and or sequencing.
Assays were performed using CV-1 (African Green Monkey Kidney Cells) (ATCC) cells at 70 percent confluency in T175 flasks grown with media containing 10% charcoal/Dextran-treated fetal bovine serum. Cells were transiently transfected with a DNA mixture containing 12 μg of CMX-GAL4-ERRα (comprising the ligand binding domain), […] of TK-MH100×4-Luc, and 2 μg of CMX-βGal using the transfection reagent FuGENE6 (Roche Molecular Biochemicals, Indianapolis, Ind.) following recommended protocols and instructions provided by the manufacturer. Following incubation with transfection reagents for 5 hours at 37° C., cells were washed, removed from the flasks with 1× Trypsin-EDTA solution (Sigma-Aldrich, Inc. St. Louis, Mo., and then resuspended in media containing 5% charcoal/Dextran-treated fetal bovine serum to give a final concentration of 1.1×10^5 cells/ml.
Assay plates were prepared by dispensing approximately 5 μl of each compound into a well of a 384 well plate to achieve a final compound concentration of approximately 10 μM after addition of cells. Cells were added to assay plates (45 μl) via the use of a Multiprop dispenser (MTX Labs, Inc., Vienna, Va.). The assay plates containing both compounds and screening cells were incubated for approximately 20 hours at 37° C. and 5% CO2 in a tissue culture incubator.
After incubation of the transfected cells with compounds, Lysis buffer (1% Triton X-100, 10% Glycerol, 5 mM DTT, 1 mM EGTA, 25 mM Tricine) and Luciferin assay buffer (0.73 mM ATP, 22.3 mM Tricine, 0.11 mM EDTA, 33.3 mM DTT, 0.2M MgSO4, 11 mM Luciferin, 6.1 mM Coenzyme A, 0.01 mM HEPES) were prepared. Media was removed from the plates and lysis buffer and luciferin assay buffer mixed in a 1:1 ratio and then 30 μl was added to each well (384-well plate). Plates were read on the Northstar (Northstar Technologies, Inc., Acton, Mass.) and data was analyzed using ActivityBase (ID Business Solutions, Ltd., Guildford, Surrey, UK). Luciferase values were normalized with β-galactosidase values using the pCMX-βGal expression plasmid, to normalize for transfection efficiency as described previously (Willy et al., 1995, Gene & Development, 9:1033-1045).
No reporter-driven luciferase activity was observed without ERR transfection, indicating the ERR-dependency of the compounds.
The following table provides in vitro ERRα activity data of representative compounds described in the Examples. Average IC50 values for inverse agonist activity in the GAL4-ERRα assay are provided as follows: V: less than 0.5 μM; W: 0.5 μM-1 μM; X: 1 μM to 2 μM and Y: 2 μM to 5 μM. Average percent inhibition with respect to ERRα activity relative to a control (3-[4-(2,4-Bis-trifluoromethyl-benzyloxy)-3-methoxy-phenyl]-2-cyano-N-(5-trifluoromethyl-[1,3,4]thiadiazol-2-yl)-acrylamide) is provided as follows. […]

SMILES | Emax [%] | IC50 [nM]
COc1cc(C=C2SC(N3CC(C)OC(C)C3)=NC2=O)ccc1OCc1ccc(C(F)(F)F)cc1C(F)(F)F (stereo not shown) [5-[1-[4-(2,4-Bis-trifluoromethyl-benzyloxy)-3-methoxy-phenyl]-methylidene]-2-(2,6-dimethyl-morpholin-4-yl)-thiazol-4-one] | 100 to 120 | 1000 to 2000
COc1cc(C=C2SC(N3CCCC3c3ccccn3)=NC2=O)ccc1OCc1ccc(C(F)(F)F)cc1C(F)(F)F (stereo not shown) [5-[1-[4-(2,4-Bis-trifluoromethyl-benzyloxy)-3-methoxy-phenyl]-methylidene]-2-(2-pyridin-2-yl-pyrrolidin-1-yl)-thiazol-4-one] | 100 to 120 | < 500
CCCCCN1CCN(C2=NC(=O)C(=Cc3ccc(OCc4ccc(C(F)(F)F)cc4C(F)(F)F)c(OC)c3)S2)CC1 [5-[1-[4-(2,4-Bis-trifluoromethyl-benzyloxy)-3-methoxy-phenyl]-methylidene]-2-(4-pentyl-piperazin-1-yl)-thiazol-4-one] | 80 to 100 | 2000 to 5000
COc1cc(C=C2SC(N3CCCC(c4nc5cc(C)ccc5[nH]4)C3)=NC2=O)ccc1OCc1ccc(C(F)(F)F)cc1C(F)(F)F (stereo not shown) [5-[1-[4-(2,4-Bis-trifluoromethyl-benzyloxy)-3-methoxy-phenyl]-methylidene]-2-[3-(5-methyl-1H-benzoimidazol-2-yl)-piperidin-1-yl]-thiazol-4-one] | 80 to 100 | 1000 to 2000
COc1cc(C=C2SC(N3CCN(C)CC3)=NC2=O)ccc1OCc1ccc(C(F)(F)F)cc1C(F)(F)F [Example 18, 5-[1-[4-(2,4-Bis-trifluoromethyl-benzyloxy)-3-methoxy-phenyl]-methylidene]-2-(4-methyl-piperazin-1-yl)-thiazol-4-one] | 100 to 120 | < 500
COc1cc(C=C2SC(N3CCSCC3)=NC2=O)ccc1OCc1ccc(C(F)(F)F)cc1C(F)(F)F [Example 22, 5-[1-[4-(2,4-Bis-trifluoromethyl-benzyloxy)-3-methoxy-phenyl]-methylidene]-2-thiomorpholin-4-yl-thiazol-4-one] | 100 to 120 | 500 to 1000
COc1cc(C=C2SC(N3CCNCC3)=NC2=O)ccc1OCc1ccc(C(F)(F)F)cc1C(F)(F)F [Example 23, 5-[1-[4-(2,4-Bis-trifluoromethyl-benzyloxy)-3-methoxy-phenyl]-methylidene]-2-piperazin-1-yl-thiazol-4-one] | 100 to 120 | < 500

Further lines, results first:

Emax [%] | IC50 [nM] | SMILES
80 to 100 | 500 to 1000 | COc1cc(C=C2SC(N3CCN(CC4CCN(C)CC4)CC3)=NC2=O)ccc1OCc1ccc(C(F)(F)F)cc1C(F)(F)F [5-[1-[4-(2,4-Bis-trifluoromethyl-benzyloxy)-3-methoxy-phenyl]-methylidene]-2-[4-(1-methyl-piperidin-4-ylmethyl)-piperazin-1-yl]-thiazol-4-one]
60 to 80 | 2000 to 5000 | COc1cc(C=C2SC(N3CCN(Cc4ccc(Cl)cc4)CC3)=NC2=O)ccc1OCc1ccc(C(F)(F)F)cc1C(F)(F)F [5-[1-[4-(2,4-Bis-trifluoromethyl-benzyloxy)-3-methoxy-phenyl]-methylidene]-2-[4-(4-chloro-benzyl)-piperazin-1-yl]-thiazol-4-one]
80 to 100 | 500 to 1000 | COc1cc(C=C2SC(N3CCOCC3)=NC2=O)ccc1OCc1ccc(C(F)(F)F)cc1C(F)(F)F [Example 19, 5-[1-[4-(2,4-Bis-trifluoromethyl-benzyloxy)-3-methoxy-phenyl]-methylidene]-2-morpholin-4-yl-thiazol-4-one]
100 to 120 | < 500 | COc1cc(C=C2SC(N3CCN(S(C)(=O)=O)CC3)=NC2=O)ccc1OCc1ccc(C(F)(F)F)cc1C(F)(F)F [Example 29, 5-[1-[4-(2,4-Bis-trifluoromethyl-benzyloxy)-3-methoxy-phenyl]-methylidene]-2-(4-methanesulfonyl-piperazin-1-yl)-thiazol-4-one]
